ChEMBL document CHEMBL5653615 (J Biol Chem, 2013)

Experiments:
[1] = target: Tyrosine-protein kinase Fes/Fps (Homo sapiens) (UniProt P07332); experiment: Inhibition of human FES at 500 nM by HotSpot assay relative to control
[2] = target: Tyrosine-protein kinase BTK (Homo sapiens) (UniProt Q06187); experiment: Inhibition of human BTK at 500 nM by HotSpot assay relative to control
[3] = target: Serine/threonine-protein kinase pim-3 (Homo sapiens) (UniProt Q86V86); experiment: Inhibition of human PIM3 at 500 nM by HotSpot assay relative to control
[4] = target: T1, Rhodopsin kinase GRK7 (Homo sapiens) (UniProt Q8WTQ7); experiment: Inhibition of human GRK7 at 500 nM by HotSpot assay relative to control
T1 sequence (whole entry): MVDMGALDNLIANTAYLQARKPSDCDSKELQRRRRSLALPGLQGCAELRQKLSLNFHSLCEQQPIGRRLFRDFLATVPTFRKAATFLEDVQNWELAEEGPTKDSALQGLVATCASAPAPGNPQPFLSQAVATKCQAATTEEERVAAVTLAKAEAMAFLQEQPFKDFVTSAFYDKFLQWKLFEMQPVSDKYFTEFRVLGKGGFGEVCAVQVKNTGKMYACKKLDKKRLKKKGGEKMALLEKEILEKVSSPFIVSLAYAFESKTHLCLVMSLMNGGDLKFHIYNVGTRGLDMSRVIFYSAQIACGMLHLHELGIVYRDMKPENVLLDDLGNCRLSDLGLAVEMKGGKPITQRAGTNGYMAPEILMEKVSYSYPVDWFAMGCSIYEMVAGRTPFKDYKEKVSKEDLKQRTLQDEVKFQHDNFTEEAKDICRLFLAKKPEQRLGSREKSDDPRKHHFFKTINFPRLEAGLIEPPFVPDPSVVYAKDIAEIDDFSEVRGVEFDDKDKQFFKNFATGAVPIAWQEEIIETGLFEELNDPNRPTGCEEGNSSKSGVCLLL

[5] = target: Maternal embryonic leucine zipper kinase (Homo sapiens) (UniProt Q14680); experiment: Inhibition of human MELK at 500 nM by HotSpot assay relative to control
Sequence of Maternal embryonic leucine zipper kinase (Homo sapiens) (Q14680 whole entry, looked up): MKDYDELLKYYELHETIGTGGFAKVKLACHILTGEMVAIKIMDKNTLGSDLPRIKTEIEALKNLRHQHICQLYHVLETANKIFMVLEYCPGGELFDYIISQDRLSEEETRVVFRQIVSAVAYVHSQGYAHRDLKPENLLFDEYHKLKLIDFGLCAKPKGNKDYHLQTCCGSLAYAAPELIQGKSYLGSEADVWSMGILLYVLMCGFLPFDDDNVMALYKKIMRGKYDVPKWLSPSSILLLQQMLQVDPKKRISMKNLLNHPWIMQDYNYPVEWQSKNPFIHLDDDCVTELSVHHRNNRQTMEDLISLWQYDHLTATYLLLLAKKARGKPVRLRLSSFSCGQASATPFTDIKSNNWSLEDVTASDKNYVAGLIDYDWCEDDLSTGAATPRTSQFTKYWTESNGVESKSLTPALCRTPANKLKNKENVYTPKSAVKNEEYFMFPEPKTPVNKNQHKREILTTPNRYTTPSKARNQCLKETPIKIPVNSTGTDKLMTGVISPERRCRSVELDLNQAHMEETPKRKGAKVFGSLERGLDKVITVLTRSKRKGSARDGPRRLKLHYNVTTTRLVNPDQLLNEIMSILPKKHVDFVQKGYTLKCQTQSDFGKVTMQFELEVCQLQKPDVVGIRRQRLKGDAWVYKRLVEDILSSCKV

[6] = target: Calcium/calmodulin-dependent protein kinase kinase 2 (Homo sapiens) (UniProt Q96RR4); experiment: Inhibition of human CAMKK2 at 500 nM by HotSpot assay relative to control
Sequence of Calcium/calmodulin-dependent protein kinase kinase 2 (Homo sapiens) (Q96RR4 2-588 limits assumed): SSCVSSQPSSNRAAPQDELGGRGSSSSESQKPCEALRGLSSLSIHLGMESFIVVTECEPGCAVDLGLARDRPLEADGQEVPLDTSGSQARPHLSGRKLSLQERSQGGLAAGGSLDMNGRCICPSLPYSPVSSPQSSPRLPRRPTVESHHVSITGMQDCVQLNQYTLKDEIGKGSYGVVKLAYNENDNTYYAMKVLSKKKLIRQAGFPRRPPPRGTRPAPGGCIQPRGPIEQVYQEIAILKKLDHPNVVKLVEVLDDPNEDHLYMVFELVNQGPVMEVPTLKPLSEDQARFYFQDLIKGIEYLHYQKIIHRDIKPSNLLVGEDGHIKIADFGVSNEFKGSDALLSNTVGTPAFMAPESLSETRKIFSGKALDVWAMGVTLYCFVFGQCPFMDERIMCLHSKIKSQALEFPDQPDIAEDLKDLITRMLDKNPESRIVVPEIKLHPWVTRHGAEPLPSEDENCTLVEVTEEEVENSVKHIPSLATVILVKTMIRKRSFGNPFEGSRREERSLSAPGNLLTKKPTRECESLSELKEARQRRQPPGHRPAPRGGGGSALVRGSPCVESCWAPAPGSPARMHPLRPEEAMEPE

[7] = target: Platelet-derived growth factor receptor alpha (Homo sapiens) (UniProt P16234); experiment: Inhibition of human PDGFRa at 500 nM by HotSpot assay relative to control
Sequence of Platelet-derived growth factor receptor alpha (Homo sapiens) (P16234 whole entry): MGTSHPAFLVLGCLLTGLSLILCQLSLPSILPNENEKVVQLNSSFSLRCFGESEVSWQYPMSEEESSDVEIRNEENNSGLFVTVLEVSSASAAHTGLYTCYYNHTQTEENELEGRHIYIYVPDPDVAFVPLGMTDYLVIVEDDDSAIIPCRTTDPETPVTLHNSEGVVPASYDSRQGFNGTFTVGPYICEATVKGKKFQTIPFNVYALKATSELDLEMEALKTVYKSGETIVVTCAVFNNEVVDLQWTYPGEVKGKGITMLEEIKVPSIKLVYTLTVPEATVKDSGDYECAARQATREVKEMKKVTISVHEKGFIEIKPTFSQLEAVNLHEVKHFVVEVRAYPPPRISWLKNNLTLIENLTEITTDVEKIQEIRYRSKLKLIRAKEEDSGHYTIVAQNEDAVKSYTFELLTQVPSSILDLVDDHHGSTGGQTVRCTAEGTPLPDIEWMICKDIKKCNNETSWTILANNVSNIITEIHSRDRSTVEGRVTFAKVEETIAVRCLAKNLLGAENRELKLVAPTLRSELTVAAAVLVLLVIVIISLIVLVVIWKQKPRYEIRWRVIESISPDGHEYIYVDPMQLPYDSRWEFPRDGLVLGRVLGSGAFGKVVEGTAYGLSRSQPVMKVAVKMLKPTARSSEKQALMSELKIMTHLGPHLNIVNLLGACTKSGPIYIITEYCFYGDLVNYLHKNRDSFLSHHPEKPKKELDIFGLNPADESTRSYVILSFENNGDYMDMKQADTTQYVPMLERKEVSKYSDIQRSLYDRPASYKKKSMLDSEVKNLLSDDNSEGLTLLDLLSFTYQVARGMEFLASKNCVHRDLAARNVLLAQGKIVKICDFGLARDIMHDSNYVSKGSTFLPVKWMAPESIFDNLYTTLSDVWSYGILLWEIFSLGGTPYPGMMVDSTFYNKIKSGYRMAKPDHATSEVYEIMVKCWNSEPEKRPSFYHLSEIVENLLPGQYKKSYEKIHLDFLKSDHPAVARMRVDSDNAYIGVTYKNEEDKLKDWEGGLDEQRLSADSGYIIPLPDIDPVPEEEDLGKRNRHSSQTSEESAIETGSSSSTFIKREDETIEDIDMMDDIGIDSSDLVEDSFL

[8] = target: Proto-oncogene tyrosine-protein kinase Src (Homo sapiens) (UniProt P12931); experiment: Inhibition of human c-Src at 500 nM by HotSpot assay relative to control
Homo sapiens = species on record: Homo sapiens; experiment: Inhibition of human TAO1 at 500 nM by HotSpot assay relative to control
[9] = target: T2, 3-phosphoinositide-dependent protein kinase 1 (Homo sapiens) (UniProt O15530); experiment: Inhibition of human PDPK1 at 500 nM by HotSpot assay relative to control
T2 sequence (whole entry): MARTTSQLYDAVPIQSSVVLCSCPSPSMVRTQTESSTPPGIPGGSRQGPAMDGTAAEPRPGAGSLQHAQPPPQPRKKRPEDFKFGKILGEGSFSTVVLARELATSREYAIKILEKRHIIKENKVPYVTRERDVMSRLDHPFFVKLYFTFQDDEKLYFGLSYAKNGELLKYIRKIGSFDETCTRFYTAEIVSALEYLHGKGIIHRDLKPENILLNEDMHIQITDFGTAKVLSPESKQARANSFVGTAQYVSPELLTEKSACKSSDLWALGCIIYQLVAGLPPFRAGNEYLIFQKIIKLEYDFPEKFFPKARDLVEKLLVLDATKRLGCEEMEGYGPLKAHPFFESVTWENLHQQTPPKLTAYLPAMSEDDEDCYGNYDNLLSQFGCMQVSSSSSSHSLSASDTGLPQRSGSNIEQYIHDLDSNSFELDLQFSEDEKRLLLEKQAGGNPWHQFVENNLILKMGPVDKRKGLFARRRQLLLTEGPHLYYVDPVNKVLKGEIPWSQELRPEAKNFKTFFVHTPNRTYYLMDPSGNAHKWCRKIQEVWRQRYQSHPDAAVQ

[10] = target: T3, Serine/threonine-protein kinase 17A (Homo sapiens) (UniProt Q9UEE5); experiment: Inhibition of human DRAK1 at 500 nM by HotSpot assay relative to control
T3 sequence (whole entry): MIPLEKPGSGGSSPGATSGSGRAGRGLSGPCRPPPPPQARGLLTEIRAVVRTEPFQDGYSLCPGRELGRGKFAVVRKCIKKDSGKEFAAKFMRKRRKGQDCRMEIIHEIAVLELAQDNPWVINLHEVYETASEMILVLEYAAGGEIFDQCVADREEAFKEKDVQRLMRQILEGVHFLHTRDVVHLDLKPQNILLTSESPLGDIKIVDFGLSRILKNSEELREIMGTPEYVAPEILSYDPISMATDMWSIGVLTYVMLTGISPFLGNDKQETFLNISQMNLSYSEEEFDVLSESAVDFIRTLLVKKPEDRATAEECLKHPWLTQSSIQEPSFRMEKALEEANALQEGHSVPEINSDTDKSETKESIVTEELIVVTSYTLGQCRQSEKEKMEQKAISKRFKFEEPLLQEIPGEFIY

[11] = target: Serine/threonine-protein kinase N2 (Homo sapiens) (UniProt Q16513); experiment: Inhibition of human PRK2 at 500 nM by HotSpot assay relative to control
Sequence of Serine/threonine-protein kinase N2 (Homo sapiens) (Q16513 whole entry, looked up): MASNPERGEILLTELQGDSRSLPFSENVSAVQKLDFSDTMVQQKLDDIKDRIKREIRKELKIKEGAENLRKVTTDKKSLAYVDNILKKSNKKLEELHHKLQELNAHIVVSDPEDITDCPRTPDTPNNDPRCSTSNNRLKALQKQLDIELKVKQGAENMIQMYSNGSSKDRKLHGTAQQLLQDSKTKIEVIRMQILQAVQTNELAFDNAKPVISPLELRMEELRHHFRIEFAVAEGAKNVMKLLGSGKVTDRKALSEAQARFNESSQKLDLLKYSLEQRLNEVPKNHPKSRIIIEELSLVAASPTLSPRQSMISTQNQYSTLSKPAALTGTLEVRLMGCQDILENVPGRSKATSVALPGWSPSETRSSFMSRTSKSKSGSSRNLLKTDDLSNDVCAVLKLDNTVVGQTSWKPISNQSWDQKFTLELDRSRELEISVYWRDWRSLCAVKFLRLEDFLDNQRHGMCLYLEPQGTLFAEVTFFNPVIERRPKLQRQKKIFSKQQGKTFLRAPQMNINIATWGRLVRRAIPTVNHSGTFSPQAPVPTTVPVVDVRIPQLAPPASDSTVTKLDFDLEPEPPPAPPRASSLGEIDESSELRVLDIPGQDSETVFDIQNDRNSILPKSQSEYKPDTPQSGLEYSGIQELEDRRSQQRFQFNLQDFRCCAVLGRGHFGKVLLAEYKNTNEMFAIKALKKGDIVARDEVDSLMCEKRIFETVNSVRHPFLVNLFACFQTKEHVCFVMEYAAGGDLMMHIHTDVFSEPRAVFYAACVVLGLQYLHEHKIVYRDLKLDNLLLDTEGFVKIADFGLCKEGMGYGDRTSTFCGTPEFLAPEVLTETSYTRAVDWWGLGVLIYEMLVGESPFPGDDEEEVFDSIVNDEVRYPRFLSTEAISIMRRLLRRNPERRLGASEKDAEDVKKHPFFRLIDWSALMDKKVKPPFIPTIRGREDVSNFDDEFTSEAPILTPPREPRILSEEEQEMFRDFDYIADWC

[12] = target: T4, NUAK family SNF1-like kinase 1 (Homo sapiens) (UniProt O60285); experiment: Inhibition of human ARK5 at 500 nM by HotSpot assay relative to control
T4 sequence (whole entry): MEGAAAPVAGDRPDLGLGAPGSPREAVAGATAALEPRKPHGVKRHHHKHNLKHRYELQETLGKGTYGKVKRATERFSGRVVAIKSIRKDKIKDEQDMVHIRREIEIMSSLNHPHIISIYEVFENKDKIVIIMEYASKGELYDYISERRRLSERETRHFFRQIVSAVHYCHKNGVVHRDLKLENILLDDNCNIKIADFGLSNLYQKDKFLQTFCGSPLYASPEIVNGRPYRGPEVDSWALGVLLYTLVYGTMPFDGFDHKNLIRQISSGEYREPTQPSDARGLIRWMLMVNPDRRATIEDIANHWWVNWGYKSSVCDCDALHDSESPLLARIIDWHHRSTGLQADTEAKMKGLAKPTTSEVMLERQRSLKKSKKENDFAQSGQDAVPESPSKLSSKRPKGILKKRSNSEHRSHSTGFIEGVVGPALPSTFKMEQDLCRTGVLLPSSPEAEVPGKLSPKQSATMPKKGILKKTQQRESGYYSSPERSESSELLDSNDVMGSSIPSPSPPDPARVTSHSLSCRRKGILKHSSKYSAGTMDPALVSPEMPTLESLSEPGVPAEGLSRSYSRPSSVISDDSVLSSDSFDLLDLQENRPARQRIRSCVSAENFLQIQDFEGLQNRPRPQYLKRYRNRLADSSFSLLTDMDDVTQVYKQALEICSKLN

Sequence of Tyrosine-protein kinase Fes/Fps (Homo sapiens) (P07332 whole entry): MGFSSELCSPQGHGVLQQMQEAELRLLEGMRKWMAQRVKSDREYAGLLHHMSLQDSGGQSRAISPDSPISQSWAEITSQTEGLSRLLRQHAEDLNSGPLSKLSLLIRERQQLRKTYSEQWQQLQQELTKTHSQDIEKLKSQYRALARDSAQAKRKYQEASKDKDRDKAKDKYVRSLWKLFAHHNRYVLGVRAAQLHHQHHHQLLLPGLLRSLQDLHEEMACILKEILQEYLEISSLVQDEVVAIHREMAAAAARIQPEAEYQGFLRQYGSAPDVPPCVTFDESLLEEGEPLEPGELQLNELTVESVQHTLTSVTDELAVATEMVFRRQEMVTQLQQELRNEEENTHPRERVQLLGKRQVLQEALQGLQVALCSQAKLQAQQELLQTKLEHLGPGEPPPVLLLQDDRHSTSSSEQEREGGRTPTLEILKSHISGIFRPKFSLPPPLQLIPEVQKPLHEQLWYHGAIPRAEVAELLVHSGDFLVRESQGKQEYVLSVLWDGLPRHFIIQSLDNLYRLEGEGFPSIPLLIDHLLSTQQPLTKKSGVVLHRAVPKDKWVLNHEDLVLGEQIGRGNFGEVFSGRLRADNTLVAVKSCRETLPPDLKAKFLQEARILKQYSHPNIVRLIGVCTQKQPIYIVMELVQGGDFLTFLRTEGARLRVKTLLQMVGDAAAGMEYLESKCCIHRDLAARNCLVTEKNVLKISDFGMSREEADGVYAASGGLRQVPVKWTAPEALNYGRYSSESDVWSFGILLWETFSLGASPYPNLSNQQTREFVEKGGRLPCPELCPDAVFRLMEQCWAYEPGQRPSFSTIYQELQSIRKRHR
Sequence of Tyrosine-protein kinase BTK (Homo sapiens) (Q06187 whole entry): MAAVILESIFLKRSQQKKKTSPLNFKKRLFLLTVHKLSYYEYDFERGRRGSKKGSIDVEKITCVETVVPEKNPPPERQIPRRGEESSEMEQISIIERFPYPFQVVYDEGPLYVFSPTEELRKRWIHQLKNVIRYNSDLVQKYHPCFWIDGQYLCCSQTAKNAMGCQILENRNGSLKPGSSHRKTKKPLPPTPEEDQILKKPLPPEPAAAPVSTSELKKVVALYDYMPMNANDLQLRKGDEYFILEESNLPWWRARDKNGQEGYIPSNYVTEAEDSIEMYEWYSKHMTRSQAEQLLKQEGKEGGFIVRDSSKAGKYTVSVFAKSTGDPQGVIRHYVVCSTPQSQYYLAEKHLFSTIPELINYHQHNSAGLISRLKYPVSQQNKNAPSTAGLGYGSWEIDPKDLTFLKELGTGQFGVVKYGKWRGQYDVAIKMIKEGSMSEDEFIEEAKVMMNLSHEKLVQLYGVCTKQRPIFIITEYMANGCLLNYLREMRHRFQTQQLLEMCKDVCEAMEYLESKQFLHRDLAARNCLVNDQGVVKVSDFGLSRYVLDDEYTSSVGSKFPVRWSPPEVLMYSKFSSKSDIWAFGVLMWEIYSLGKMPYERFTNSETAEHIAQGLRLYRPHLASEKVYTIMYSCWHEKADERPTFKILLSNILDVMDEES

Compound	inhibition [1]	inhibition [2]	inhibition [3]	inhibition [4]	inhibition [5]	inhibition [6]	inhibition [7]	inhibition [8]	inhibition (Homo sapiens)	inhibition [9]	inhibition [10]	inhibition [11]	inhibition [12]
Oc1n[nH]c2nnc(-c3c(-c4ccccc4)nn4ccccc34)cc12	0.31%	9.23%	-0.71%	6.89%	-1.3%	2.27%	-1.33%	-2.58%	1.69%	7.43%	-1.05%	1.9%	1.9%
Nc1n[nH]c2nnc(-c3c(-c4ccccc4)nn4ccccc34)cc12	2.16%	6.42%	-0.43%	3.29%	-1.59%	-1.27%	0.32%	-0.45%	-1.14%	-3.56%	0.09%	1.14%	7.47%
